We go through one molecule from article PMC10951303, “Macroscopic inhibition of DNA damage repair pathways by targeting AP-2α with LEI110 eradicates hepatocellular carcinoma” (Communications Biology, 2024).

The assay addresses T1, AP-2α (TFAP2A) (Homo sapiens, UniProt P05549).
T1 construct: endogenous full-length protein in intact HEP3B cells; western blot read-out
The experiment in a line: cellular thermal shift assay (CETSA), western blot. To be noted: HEP3B cells treated with LEI110 or DMSO for 1 h, then heated 3 min at increasing temperatures. It counts as cell-based.

T1 sequence (P05549 whole entry): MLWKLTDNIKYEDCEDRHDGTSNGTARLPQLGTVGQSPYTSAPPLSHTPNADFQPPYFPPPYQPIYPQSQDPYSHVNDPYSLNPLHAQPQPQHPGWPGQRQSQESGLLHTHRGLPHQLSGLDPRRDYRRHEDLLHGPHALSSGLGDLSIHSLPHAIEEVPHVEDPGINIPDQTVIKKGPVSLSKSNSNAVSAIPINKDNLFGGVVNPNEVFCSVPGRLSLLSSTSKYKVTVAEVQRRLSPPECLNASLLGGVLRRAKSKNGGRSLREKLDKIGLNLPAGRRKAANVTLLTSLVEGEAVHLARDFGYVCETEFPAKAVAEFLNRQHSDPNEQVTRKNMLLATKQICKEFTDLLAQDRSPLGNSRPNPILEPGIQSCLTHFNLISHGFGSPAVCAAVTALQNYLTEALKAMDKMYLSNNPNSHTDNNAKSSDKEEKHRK

For the molecule `O=C(CCCc1ccccc1)C(=O)NCCc1ccc(Oc2ccc(C(F)(F)F)cn2)cc1` [LEI110], the “cellular thermal shift assay (CETSA), western blot” value is on record as “the stabilization of AP-2α by LEI110 was observed in the CETSA”.
